{
  "source": "patent US12115163B2",
  "about": "“Combination therapy comprising a MAT2A inhibitor and a type II PRMT inhibitor” (IDEAYA BIOSCIENCES, INC., priority 2021, dated 2024)",
  "assay_type_in_all_cases": "in vivo, mouse",
  "key": {"[1]": {"system": "NCI-H838 MTAP-deleted xenografts", "test": "Efficacy of Compound A and Compound B in NCI-H838 NSCLC xenograft (Example 6)", "settings": "for TGI (%): Study Day 25; for Final TV (mean): initial TV 140", "protocol": "(§1) The effect of Compound A and Compound B (HCl salt was used) as single-agent anti-tumor agents and in combination was assessed in the NCI-H838 human NSCLC tumor cell line, an endogenously MTAP-deleted cell line. Cells were expanded in RPMI with 10% fetal bovine serum. These cells were free of mycoplasma and authenticated by STR profiling. Ten million cells in log growth phase were resuspended in RPMI-1640 containing 50% Matrigel and implanted subcutaneously into the flank of each recipient female BALB/c nude mouse. The mice were be kept in laminar flow rooms at constant temperature and humidity with 3-5 mice in each cage. Animals were housed in polycarbonate cages maintained at a temperature of 23±3° C. and a relative humidity of 40% to 70%. The bedding material was soft wood, which was changed once per week. Water and diet were provided ad libitum.\n(§2) Tumor Volume (TV) was calculated using the following formula: TV (mm^3)=(width×width×length)/2. No dose holidays were provided for during the study. Tumor growth inhibition (TGI) was calculated by [(TV controlfinal−TV treatedfinal)/(TV controlfinal−TV controlinitial)×100]. A TGI greater than 100% indicates tumor regressions. TV was analyzed for statistical significance utilizing GraphPad Prism version 9.1.0. Repeated Measures 2-Way ANOVA with Tukey's Multiple Comparisons was utilized, and P-values were presented from the Study Day 25 tumor measurement and were considered statistically significant if less than 0.05.\n(§3) Mean tumor volume at dosing start was approximately 140 mm^3, with ten mice randomized to each treatment group, with the study consisting of eight treatment groups. Mice were dosed orally, twice per day (BID) with Vehicle, once per day (QD) with Compound A at 3 mg/kg, or BID with Compound B at 1, 10, or 30 mg/kg, or Compound A combined with Compound B at each dose level. The Vehicle was 0.5% 400 cps methylcellulose with 0.5% Tween-80 in sterile water."}, "HCT-116 MTAP WT tumors": {"system": "HCT-116 MTAP WT tumors", "test": "Efficacy of Compound A and Compound B in HCT-116 MTAP WT xenografts (Example 5)", "settings": "for TGI (%) / Final TV (mean): Day 15; for Final TV (mean): initial TV 228", "protocol": "(§4) The effect of Compound A and Compound B (HCl salt was used) as single-agent anti-tumor agents and in combination was assessed in the HCT-116 human colon tumor cell line, MTAP isogenic pair (MTAP proficient (WT) or MTAP-deleted). Cells were expanded in DMEM/F12 GlutaMAX (Fisher Scientific, Catalog Number 10-565-018) with 10% fetal bovine serum. These cells were free of mycoplasma and authenticated as HCT-116 by STR profiling. Two and a half million cells in log growth phase were resuspended in Hanks Balanced Salt Solution containing 50% Matrigel and implanted subcutaneously into the flank of each recipient female nu/nu mouse. Mice were housed in microisolator cages with corn cob bedding with additional enrichment consisting of sterile nesting material (Innovive) and Bio-huts (Bio-Serv). Water (Innovive) and diet (Teklad Global 19% Protein Extruded Diet 2919, Irradiated) were provided ad libitum. The environment was maintained on a 12-hour light cycle at approximately 68-72° F. and 40-60% relative humidity.\nas §2, with “study and all mice were euthanized following the final dose on Day 21 (MTAP-deleted) or Day 15 (MTAP WT).” for “study.”, “final” for “Study Day 25”\n(§5) Mean tumor volume at dosing start was approximately 224 mm^3, with seven mice randomized to each treatment group. In the HCT-116 MTAP-deleted tumor model, mice were dosed orally, twice per day (BID) with Vehicle, once per day (QD) with Compound A at 1 or 3 mg/kg, or BID with Compound B at 3, 10, or 30 mg/kg, or Compound A combined with Compound B at each dose level. In the HCT-116 WT tumor model, mice were dosed orally, with BID Vehicle, QD with Compound A at 3 mg/kg, or BID with Compound B at 10 or 30 mg/kg, or Compound A combined with Compound B. The Vehicle was 0.5% 400 cps methylcellulose with 0.5% Tween-80 in sterile water."}, "[2]": {"system": "HCT-116 MTAP-deleted tumors", "test": "Efficacy of Compound A and Compound B in HCT-116 MTAP-deleted xenografts (Example 5)", "settings": "for TGI (%) / Final TV (mean): Day 21; for Final TV (mean): initial TV 224", "protocol": "as §4\nas §2, with “study and all mice were euthanized following the final dose on Day 21 (MTAP-deleted) or Day 15 (MTAP WT).” for “study.”, “final” for “Study Day 25”\nas §5"}, "[3]": {"system": "LU99 MTAP-deleted xenografts", "test": "Efficacy of Compound A and Compound B in LU99 NSCLC xenograft (Example 7)", "settings": "for TGI (%) / Final TV (mean): Study Day 21", "protocol": "as §1, with “JCRB LU99” for “NCI-H838”\nTumor Volume (TV) was calculated using the following formula: TV (mm^3)=(width×width×length)/2. No dose holidays were provided for during the study. Tumor growth inhibition (TGI) was calculated by [(TV controlfinal−TV treatedfinal)/(TV controlfinal−TV controlinitial)×100]. A TGI greater than 100% indicates tumor regressions. TV was analyzed for statistical significance utilizing GraphPad Prism version 9.1.0. Repeated Measures 2-Way ANOVA with Tukey's Multiple Comparisons was utilized, and P-values were presented from the final tumor measurement on Study Day 21 and were considered statistically significant if less than 0.05.\nas §3, with “141” for “140”"}, "[4]": {"settings": "HCT-116 MTAP WT model, over the dose levels tested"}},
  "note": "“Also recorded” adds a separate entry of the source.",
  "data": [
    {"smiles": "Cn1ncc(-c2ccc3c(=O)[nH]nc(CN)c3c2)c1-c1c(F)cc2ccccc2c1C#N", "note": "(atropisomer, axis not shown) [Compound B]", "values": [
      {"measurement": "TGI (%)", "setting": "[1]; Compound B 1 mg/kg BID orally", "result": 53, "unit": "%"},
      {"measurement": "Final TV (mean)", "setting": "[1]; Compound B 1 mg/kg BID orally", "result": 899, "unit": "mm^3"},
      {"measurement": "TGI (%)", "setting": "[1]; Compound B 10 mg/kg BID orally", "result": 56, "unit": "%"},
      {"measurement": "Final TV (mean)", "setting": "[1]; Compound B 10 mg/kg BID orally", "result": 839, "unit": "mm^3"},
      {"measurement": "TGI (%)", "setting": "[1]; Compound B 30 mg/kg BID orally", "result": 67, "unit": "%"},
      {"measurement": "Final TV (mean)", "setting": "[1]; Compound B 30 mg/kg BID orally", "result": 666, "unit": "mm^3"},
      {"measurement": "anti-tumor activity (in words)", "setting": "HCT-116 MTAP WT tumors; Compound B 10 mg/kg BID", "result": "significantly enhanced tumor growth"},
      {"measurement": "TGI (%)", "setting": "HCT-116 MTAP WT tumors; Compound B 10 mg/kg BID orally", "result": "−52", "unit": "%"},
      {"measurement": "Final TV (mean)", "setting": "HCT-116 MTAP WT tumors; Compound B 10 mg/kg BID orally", "result": 1596, "unit": "mm^3"},
      {"measurement": "TGI (%)", "setting": "HCT-116 MTAP WT tumors; Compound B 30 mg/kg BID orally", "result": "−27", "unit": "%"},
      {"measurement": "Final TV (mean)", "setting": "HCT-116 MTAP WT tumors; Compound B 30 mg/kg BID orally", "result": 1372, "unit": "mm^3"},
      {"measurement": "anti-tumor activity (in words)", "setting": "HCT-116 MTAP WT tumors; [4]", "result": "no single agent activity"},
      {"measurement": "TGI (%)", "setting": "[2]; Compound B 3 mg/kg BID orally", "result": 29, "unit": "%"},
      {"measurement": "Final TV (mean)", "setting": "[2]; Compound B 3 mg/kg BID orally", "result": 1015, "unit": "mm^3"},
      {"measurement": "TGI (%)", "setting": "[2]; Compound B 10 mg/kg BID orally", "result": 49, "unit": "%"},
      {"measurement": "Final TV (mean)", "setting": "[2]; Compound B 10 mg/kg BID orally", "result": 794, "unit": "mm^3"},
      {"measurement": "TGI (%)", "setting": "[2]; Compound B 30 mg/kg BID orally", "result": 83, "unit": "%"},
      {"measurement": "Final TV (mean)", "setting": "[2]; Compound B 30 mg/kg BID orally", "result": 420, "unit": "mm^3"},
      {"measurement": "TGI (%)", "setting": "[3]; Compound B 1 mg/kg BID orally", "result": 23, "unit": "%"},
      {"measurement": "Final TV (mean)", "setting": "[3]; Compound B 1 mg/kg BID orally, initial TV 142", "result": 1765, "unit": "mm^3"},
      {"measurement": "TGI (%)", "setting": "[3]; Compound B 10 mg/kg BID orally", "result": 74, "unit": "%"},
      {"measurement": "Final TV (mean)", "setting": "[3]; Compound B 10 mg/kg BID orally, initial TV 142", "result": 683, "unit": "mm^3"},
      {"measurement": "TGI (%)", "setting": "[3]; Compound B 30 mg/kg BID orally", "result": 90, "unit": "%"},
      {"measurement": "Final TV (mean)", "setting": "[3]; Compound B 30 mg/kg BID orally, initial TV 141", "result": 353, "unit": "mm^3"}
    ]},
    {"smiles": "Nc1nc(=O)n(-c2ccccc2Cl)c2nc(C(F)(F)F)ccc12", "note": "[Compound A]", "values": [
      {"measurement": "TGI (%)", "setting": "[1]; Compound A 3 mg/kg QD orally", "result": 79, "unit": "%"},
      {"measurement": "Final TV (mean)", "setting": "[1]; Compound A 3 mg/kg QD orally", "result": 478, "unit": "mm^3"},
      {"measurement": "anti-tumor activity (in words)", "setting": "[1]; NCI-H838 model, over the dose levels tested", "result": "statistically significant anti-tumor activity"},
      {"measurement": "TGI (%)", "setting": "HCT-116 MTAP WT tumors; Compound A 3 mg/kg QD orally", "result": "−9", "unit": "%"},
      {"measurement": "Final TV (mean)", "setting": "HCT-116 MTAP WT tumors; Compound A 3 mg/kg QD orally", "result": 1211, "unit": "mm^3"},
      {"measurement": "anti-tumor activity (in words)", "setting": "HCT-116 MTAP WT tumors; [4]", "result": "no tumor growth inhibition; also recorded: no single agent activity"},
      {"measurement": "TGI (%)", "setting": "[2]; Compound A 1 mg/kg QD orally", "result": 64, "unit": "%"},
      {"measurement": "Final TV (mean)", "setting": "[2]; Compound A 1 mg/kg QD orally", "result": 632, "unit": "mm^3"},
      {"measurement": "TGI (%)", "setting": "[2]; Compound A 3 mg/kg QD orally", "result": 80, "unit": "%"},
      {"measurement": "Final TV (mean)", "setting": "[2]; Compound A 3 mg/kg QD orally", "result": 450, "unit": "mm^3"},
      {"measurement": "anti-tumor activity (in words)", "setting": "[2]; HCT-116 MTAP-deleted model, over the dose levels tested", "result": "statistically significant anti-tumor activity"},
      {"measurement": "TGI (%)", "setting": "[3]; Compound A 3 mg/kg QD orally", "result": 43, "unit": "%"},
      {"measurement": "Final TV (mean)", "setting": "[3]; Compound A 3 mg/kg QD orally, initial TV 142", "result": 1341, "unit": "mm^3"},
      {"measurement": "anti-tumor activity (in words)", "setting": "[3]; LU99 model, over the dose levels tested", "result": "statistically significant anti-tumor activity"}
    ]}
  ]
}
